Consider 14 compounds from ChEMBL document CHEMBL2321651, “Structure-activity relationship study on benzoic acid part of diphenylamine-based retinoids” (Bioorg Med Chem Lett, 2013).

The test system of data set [1] is HL-60. Kind of data set: Induction of human HL60 cell differentiation at 3.3 x 10^-10 M. The class given is functional.
The test system of data set [2] is HL-60. Kind of data set: Induction of human HL60 cell differentiation at 1 x 10^-10 M. The class given is functional.
In data set [3] the test system is HL-60. Kind of data set: Induction of human HL60 cell differentiation. The class given is functional, cell-based.
For data set [4], the system named is HL-60. Kind of data set: Induction of human HL60 cell differentiation in presence of 1 x 10^-10 M RAR agonist Am80. The class given is functional, cell-based.
Data set [5] deals with HL-60. Kind of data set: Inhibition of Am80-induced human HL60 cell differentiation. The class given is cell-based.
Data set [6] concerns the target T1, Retinoid X receptor (Homo sapiens, UniProt P28702+P48443+P19793).
T1 sequence (P28702 whole entry): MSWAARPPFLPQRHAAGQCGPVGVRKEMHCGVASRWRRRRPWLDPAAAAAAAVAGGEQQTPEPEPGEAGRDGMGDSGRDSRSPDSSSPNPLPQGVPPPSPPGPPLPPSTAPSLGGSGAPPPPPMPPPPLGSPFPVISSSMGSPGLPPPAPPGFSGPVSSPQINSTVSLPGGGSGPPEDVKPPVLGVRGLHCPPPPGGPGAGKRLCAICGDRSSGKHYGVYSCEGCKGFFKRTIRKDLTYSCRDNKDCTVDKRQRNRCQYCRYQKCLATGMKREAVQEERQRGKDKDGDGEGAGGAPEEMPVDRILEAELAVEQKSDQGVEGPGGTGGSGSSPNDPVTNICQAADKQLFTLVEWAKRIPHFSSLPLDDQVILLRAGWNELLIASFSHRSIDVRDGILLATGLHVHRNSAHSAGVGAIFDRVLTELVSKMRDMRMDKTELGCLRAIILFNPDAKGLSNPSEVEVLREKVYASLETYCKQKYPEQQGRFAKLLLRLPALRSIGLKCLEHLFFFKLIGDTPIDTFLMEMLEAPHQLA
T1 sequence (P48443 whole entry): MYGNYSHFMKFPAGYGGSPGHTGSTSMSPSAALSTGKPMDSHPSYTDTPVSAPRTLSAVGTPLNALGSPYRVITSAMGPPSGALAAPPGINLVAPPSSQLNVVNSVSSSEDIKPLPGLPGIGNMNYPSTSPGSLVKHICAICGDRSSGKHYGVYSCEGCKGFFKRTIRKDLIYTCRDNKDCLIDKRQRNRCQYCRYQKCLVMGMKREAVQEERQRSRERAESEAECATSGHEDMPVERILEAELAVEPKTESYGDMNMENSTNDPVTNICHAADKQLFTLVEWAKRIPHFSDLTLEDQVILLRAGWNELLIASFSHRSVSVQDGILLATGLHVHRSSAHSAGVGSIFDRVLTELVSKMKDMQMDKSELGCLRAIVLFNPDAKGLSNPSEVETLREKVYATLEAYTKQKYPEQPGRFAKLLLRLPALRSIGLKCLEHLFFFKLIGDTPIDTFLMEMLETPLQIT
T1 sequence (P19793 whole entry): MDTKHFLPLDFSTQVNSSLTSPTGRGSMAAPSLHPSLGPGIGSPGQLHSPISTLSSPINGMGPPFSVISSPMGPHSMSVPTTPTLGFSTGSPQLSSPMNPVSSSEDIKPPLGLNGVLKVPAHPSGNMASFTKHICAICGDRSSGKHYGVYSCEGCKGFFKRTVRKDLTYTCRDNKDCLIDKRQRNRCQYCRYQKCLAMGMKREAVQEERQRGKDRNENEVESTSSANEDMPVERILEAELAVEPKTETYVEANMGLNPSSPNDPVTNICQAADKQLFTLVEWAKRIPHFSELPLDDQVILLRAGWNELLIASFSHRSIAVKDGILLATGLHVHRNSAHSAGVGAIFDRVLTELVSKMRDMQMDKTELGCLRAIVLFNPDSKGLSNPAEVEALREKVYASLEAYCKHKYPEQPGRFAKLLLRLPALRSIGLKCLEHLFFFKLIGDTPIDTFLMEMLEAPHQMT
Kind of data set: Agonist activity at RXR (unknown origin) in presence of RAR agonist Am80. The class given is protein assay.

Data set [7] can be described thus: Agonist activity at RAR/RXR (unknown origin). Further details: species or system Homo sapiens.
Data set [8] is described as follows: Agonist activity at RAR/RXR (unknown origin) in presence of RAR agonist Am80. Set-up: species or system Homo sapiens.

Active and inactive are the calls of the source. The rule behind the calls is not given here.

Consider `CC1(C)CCC(C)(C)c2cc(NC(=O)c3ccc(C(=O)O)cc3)ccc21` [TAMIBAROTENE], for which the Activity in data set [1] turned out to be 60%; in data set [2], 5%.
Regarding `CCCN(c1ccc(/C=C/C(=O)O)cc1)c1cc2c(cc1C)C(C)(C)CCC2(C)C`, the outcome in data set [3] and in data set [4] was Active.
`Cc1cc(C(=O)O)ccc1N(C)c1ccc2c(c1)C(C)(C)CCC2(C)C`: the outcome in data set [3] and in data set [4] was inactive. In addition, in data set [5], the “inhibition (INH)” value is given as “Dose-dependent effect”.
Take `Cc1cc2c(cc1N(C)c1ccc(CCC(=O)O)cc1)C(C)(C)CCC2(C)C`: the result in data set [3] and in data set [4] was Active.
As for `CCCN(c1ccc(C(=O)O)cc1)c1cc2c(cc1C)C(C)(C)CCC2(C)C`, the result in data set [4] was Active. Besides, the EC50 in data set [6] was determined as 1.4 ×10⁻¹⁰ M.
The compound `Cc1cc2c(cc1N(C)c1ccc(/C=C/C(=O)O)cc1)C(C)(C)CCC2(C)C` came in with an EC50 in data set [3] of 38 nM. In addition, in data set [4], the outcome was Active.
Regarding `CCCN(c1ccc(CCC(=O)O)cc1)c1ccc2c(c1)C(C)(C)CCC2(C)C`, the result in data set [3] and in data set [4] was Active.
Consider `CCCN(c1ccc(CCC(=O)O)cc1)c1cc2c(cc1C)C(C)(C)CCC2(C)C`, for which the result in data set [3] and in data set [4] was Active.
As for `CN(c1ccc(CCC(=O)O)cc1)c1ccc2c(c1)C(C)(C)CCC2(C)C`, the outcome in data set [3] and in data set [4] was Active.
In data set [3], `CN(c1ccc(/C=C/C(=O)O)cc1)c1ccc2c(c1)C(C)(C)CCC2(C)C` had an EC50 of 22 nM. In addition, the result in data set [4] was Active.
Regarding `CCCN(c1ccc(C(=O)O)cc1)c1ccc2c(c1)C(C)(C)CCC2(C)C`, the EC50 result in data set [7] is “Not Active”; in data set [8], 1.5 nM. Further, in data set [4], the outcome was Active.
Take `CN(c1ccc(C(=O)O)cc1)c1ccc2c(c1)C(C)(C)CCC2(C)C`: the result in data set [3] was Active. The values for the EC50 in data set [7] (read-out: EC50) and in data set [8] were 360 nM and 6.6 nM, respectively.
As for `CCCN(c1ccc(/C=C/C(=O)O)cc1)c1ccc2c(c1)C(C)(C)CCC2(C)C`, the outcome in data set [3] and in data set [4] was Active.
For `Cc1cc2c(cc1N(C)c1ccc(C(=O)O)cc1)C(C)(C)CCC2(C)C`, the outcome in data set [3] and in data set [4] was Active. Also, the EC50 in data set [6] is on record as 1.3 ×10⁻¹⁰ M.
